# Experimental data published in PubChem BioAssay AID588642 (The Scripps Research Institute Molecular Screening Center, 2011).
# The source made the active and inactive calls.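 How the source made its calls: active means MAPK1 kinase protein level shifted by at least 30% from solvent-only cells, either down or up; inactive means shift in protein level under 30% either way.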
# Molecular target: Mitogen-activated protein kinase 1 (Homo sapiens) (UniProt P28482)
# Assay: total ERK1/2 protein level change, either direction, late-stage follow-up, counter-screen for KLF5 inhibitor project, cell-based, HCT116 colorectal carcinoma, chemiluminescent western blot (AID 588642)
# Settings: HCT116 ERK1/2 protein level, 24 h, at 10 µM, stronger effect = higher value
# Mitogen-activated protein kinase 1 (Homo sapiens), sequence (P28482 whole entry, looked up): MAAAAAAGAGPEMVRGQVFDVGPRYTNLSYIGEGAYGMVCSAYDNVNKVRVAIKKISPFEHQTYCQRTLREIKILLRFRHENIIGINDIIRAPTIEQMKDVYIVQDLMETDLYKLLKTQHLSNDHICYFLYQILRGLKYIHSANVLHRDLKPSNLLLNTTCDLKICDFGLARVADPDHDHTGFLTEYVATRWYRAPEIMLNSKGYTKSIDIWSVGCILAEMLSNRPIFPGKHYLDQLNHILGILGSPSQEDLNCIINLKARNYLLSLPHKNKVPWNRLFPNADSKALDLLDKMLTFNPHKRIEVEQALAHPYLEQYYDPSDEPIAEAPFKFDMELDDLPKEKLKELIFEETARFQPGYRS
row,inhibition,Structure (SMILES)
1,4.62% (inactive),CN(C(=O)COC(=O)/C=C/c1cccc([N+](=O)[O-])c1)C1CCS(=O)(=O)C1 (stereo not drawn)
2,3.03% (inactive),CN(C(=O)CNC(=O)/C=C/c1cccc(Cl)c1)C1CCS(=O)(=O)CC1
3,5.48% (inactive),CN(C(=O)CNC(=O)/C=C/c1cccc(Cl)c1)C1CCS(=O)(=O)C1 (stereo not drawn)
